Measured values as given in ChEMBL document CHEMBL1201862, “PubChem BioAssay data set” (2004).
Calls of active or inactive are those of the source.

Experiments:
[1] = molecular target: T1, Alkaline phosphatase, tissue-nonspecific isozyme (Homo sapiens, UniProt P05186); assay: TNAP enzyme inhibition by screening hits, dose response, selectivity assay for mouse IAP inhibitor project, biochemical, human TNAP, uHTS hits (AID 488906); format: functional
T1 sequence (P05186 whole entry): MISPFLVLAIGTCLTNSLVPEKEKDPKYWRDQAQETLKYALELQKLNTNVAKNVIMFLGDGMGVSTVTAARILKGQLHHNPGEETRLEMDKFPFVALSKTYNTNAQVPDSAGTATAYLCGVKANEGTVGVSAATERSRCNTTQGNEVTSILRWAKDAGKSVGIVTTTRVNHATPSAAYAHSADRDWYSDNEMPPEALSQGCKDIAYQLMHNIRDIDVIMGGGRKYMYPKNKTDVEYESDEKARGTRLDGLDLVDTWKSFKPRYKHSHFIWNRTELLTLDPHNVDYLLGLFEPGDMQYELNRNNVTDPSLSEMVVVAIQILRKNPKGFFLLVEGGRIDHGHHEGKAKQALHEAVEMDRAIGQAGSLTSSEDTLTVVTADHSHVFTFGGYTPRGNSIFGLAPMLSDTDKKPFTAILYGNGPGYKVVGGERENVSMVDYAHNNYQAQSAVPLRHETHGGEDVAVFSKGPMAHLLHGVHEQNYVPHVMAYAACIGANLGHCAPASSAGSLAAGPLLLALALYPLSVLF

[2] = molecular target: DNA dC->dU-editing enzyme APOBEC-3G (Homo sapiens, UniProt Q9HC16); assay: Dose Response confirmation of small molecule APOBEC3G DNA Deaminase Inhibitors via a fluorescence-based single-stranded DNA deaminase assay. [Related pubchem assays (depositor defined):AID493012, AID493028]; format: functional
[3] = molecular target: T2, RNA-binding protein pos-1 (Caenorhabditis elegans, UniProt G5EF15); assay: disruptors of C. elegans POS-1 RNA interaction – biochemical, fluorescence polarization, dose response (AID 1964);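 note: purified POS-1 fused to maltose binding protein made in E. coli; potency of compounds blocking POS-1 binding to fluorescent RNA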
T2 sequence (G5EF15 whole entry): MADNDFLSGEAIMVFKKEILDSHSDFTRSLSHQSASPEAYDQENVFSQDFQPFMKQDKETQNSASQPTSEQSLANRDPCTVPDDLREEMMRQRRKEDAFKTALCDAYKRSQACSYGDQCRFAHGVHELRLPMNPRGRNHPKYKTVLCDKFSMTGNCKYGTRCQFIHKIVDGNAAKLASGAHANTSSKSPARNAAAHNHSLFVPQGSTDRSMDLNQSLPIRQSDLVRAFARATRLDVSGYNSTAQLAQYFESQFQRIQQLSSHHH

[4] = molecular target: Troponin, cardiac muscle (Homo sapiens, UniProt P19429+P45379+P63316); assay: compounds desensitizing RTF to calcium – biochemical, fluorescence, cardiac regulated thin filaments, triplicate IC50, dose response (AID 504742); format: protein-complex assay
[5] = molecular target: T3, Dual specificity protein phosphatase 6 (Rattus norvegicus, UniProt Q64346); assay: inhibition of rat DUSP6 enzyme activity – biochemical, in vitro, primary screen (AID 425)
T3 sequence (Q64346 whole entry): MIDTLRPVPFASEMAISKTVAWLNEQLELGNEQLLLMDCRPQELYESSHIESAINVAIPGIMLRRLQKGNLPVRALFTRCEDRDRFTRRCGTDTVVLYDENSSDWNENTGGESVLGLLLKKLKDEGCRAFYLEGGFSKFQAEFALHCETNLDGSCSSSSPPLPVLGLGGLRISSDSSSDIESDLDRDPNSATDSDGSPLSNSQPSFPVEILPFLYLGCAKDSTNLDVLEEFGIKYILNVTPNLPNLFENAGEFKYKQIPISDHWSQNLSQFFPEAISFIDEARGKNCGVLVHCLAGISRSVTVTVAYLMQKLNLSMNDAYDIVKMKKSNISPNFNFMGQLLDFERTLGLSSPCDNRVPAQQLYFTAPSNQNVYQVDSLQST

[6] = molecular target: Glyceraldehyde-3-phosphate dehydrogenase (Homo sapiens, UniProt P04406)
Chain of Glyceraldehyde-3-phosphate dehydrogenase (P04406 whole entry): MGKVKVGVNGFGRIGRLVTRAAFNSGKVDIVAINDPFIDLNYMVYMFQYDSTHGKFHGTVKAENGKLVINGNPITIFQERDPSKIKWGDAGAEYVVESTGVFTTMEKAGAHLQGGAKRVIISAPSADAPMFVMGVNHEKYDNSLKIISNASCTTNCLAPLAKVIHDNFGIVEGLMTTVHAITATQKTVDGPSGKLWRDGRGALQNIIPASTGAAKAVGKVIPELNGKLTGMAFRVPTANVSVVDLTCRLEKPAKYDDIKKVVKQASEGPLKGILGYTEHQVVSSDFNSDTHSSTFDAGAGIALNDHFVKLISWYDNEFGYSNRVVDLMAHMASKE

[7] = molecular target: Dual specificity mitogen-activated protein kinase kinase 2 (Homo sapiens, UniProt P36507); assay: Navigating the Kinome. Panel member name: MAP2K2; format: functional
Chain of Dual specificity mitogen-activated protein kinase kinase 2 (P36507 whole entry): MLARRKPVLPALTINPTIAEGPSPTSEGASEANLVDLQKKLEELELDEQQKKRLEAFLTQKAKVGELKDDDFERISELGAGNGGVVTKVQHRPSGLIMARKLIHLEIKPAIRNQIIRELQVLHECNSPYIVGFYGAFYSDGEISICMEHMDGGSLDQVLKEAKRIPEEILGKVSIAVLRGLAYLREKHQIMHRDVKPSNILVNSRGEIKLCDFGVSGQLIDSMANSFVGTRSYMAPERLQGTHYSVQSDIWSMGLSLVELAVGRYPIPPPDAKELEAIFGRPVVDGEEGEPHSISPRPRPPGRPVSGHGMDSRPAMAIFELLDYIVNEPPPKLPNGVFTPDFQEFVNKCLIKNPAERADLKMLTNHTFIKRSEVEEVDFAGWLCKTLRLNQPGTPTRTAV

[8] = molecular target: Serine/threonine-protein kinase TBK1 (Homo sapiens, UniProt Q9UHD2); assay: Navigating the Kinome. Panel member name: TBK1; format: functional
[9] = molecular target: Serine/threonine-protein kinase PAK 4 (Homo sapiens, UniProt O96013); format: functional;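 note: value obtained within a kinome profiling panel in which PAK4 was one of the panel members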
[10] = molecular target: Tyrosine-protein kinase Lck (Homo sapiens, UniProt P06239); format: functional;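 note: lck was assayed as one member of a kinase panel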
Chain of Tyrosine-protein kinase Lck (P06239 whole entry): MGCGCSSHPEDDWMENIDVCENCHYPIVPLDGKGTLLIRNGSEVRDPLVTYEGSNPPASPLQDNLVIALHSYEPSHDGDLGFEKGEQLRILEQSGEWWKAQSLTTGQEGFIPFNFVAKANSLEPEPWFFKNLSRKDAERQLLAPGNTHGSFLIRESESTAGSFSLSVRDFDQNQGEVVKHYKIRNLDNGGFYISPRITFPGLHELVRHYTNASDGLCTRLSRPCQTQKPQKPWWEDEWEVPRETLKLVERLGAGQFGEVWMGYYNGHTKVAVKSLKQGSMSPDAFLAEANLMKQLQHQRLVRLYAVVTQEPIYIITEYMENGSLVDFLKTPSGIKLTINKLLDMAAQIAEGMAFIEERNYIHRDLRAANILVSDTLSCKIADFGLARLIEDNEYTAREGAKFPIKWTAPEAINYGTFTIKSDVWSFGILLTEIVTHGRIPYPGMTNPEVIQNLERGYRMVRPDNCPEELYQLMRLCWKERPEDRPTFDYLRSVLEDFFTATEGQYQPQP

[11] = molecular target: Heat shock protein HSP 90-alpha (Homo sapiens, UniProt P07900); assay: Luminescence-based dose response biochemical high throughput screening assay for inhibitors of the Heat Shock Protein 90 (HSP90). [Related pubchem assays: 1831 (Summary AID.), 1846 (Confirmation screen.), 1789 (Primary screen.)]
[12] = molecular target: Albumin (Bos taurus, UniProt P02769); assay: Counterscreen for inhibitors of T-cell receptor (TCR)-CD3 interaction: Fluorescence-based biochemical high throughput dose response assay to identify inhibitors of T-cell receptor (TCR)-CD3 interaction using a TAMRA-labeled BSA probe.; format: functional
Chain of Albumin (P02769 whole entry): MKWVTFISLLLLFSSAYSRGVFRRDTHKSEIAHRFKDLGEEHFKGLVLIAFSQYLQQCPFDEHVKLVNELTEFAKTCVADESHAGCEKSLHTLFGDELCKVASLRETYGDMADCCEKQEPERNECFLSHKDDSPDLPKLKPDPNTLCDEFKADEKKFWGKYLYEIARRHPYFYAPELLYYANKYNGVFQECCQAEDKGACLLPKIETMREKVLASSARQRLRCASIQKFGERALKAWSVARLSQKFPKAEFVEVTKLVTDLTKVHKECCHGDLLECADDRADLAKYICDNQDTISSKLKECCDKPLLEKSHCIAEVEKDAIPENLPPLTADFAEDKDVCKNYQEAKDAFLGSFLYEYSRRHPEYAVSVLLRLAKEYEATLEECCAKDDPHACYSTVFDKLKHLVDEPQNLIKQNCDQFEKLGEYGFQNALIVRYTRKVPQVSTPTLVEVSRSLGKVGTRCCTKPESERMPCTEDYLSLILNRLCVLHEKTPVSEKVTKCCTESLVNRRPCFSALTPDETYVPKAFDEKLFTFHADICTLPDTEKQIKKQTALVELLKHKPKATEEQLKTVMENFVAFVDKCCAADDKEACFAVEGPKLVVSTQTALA

[13] = molecular target: Homeodomain-interacting protein kinase 4 (Homo sapiens, UniProt Q8NE63); format: functional
Chain of Homeodomain-interacting protein kinase 4 (Q8NE63 whole entry): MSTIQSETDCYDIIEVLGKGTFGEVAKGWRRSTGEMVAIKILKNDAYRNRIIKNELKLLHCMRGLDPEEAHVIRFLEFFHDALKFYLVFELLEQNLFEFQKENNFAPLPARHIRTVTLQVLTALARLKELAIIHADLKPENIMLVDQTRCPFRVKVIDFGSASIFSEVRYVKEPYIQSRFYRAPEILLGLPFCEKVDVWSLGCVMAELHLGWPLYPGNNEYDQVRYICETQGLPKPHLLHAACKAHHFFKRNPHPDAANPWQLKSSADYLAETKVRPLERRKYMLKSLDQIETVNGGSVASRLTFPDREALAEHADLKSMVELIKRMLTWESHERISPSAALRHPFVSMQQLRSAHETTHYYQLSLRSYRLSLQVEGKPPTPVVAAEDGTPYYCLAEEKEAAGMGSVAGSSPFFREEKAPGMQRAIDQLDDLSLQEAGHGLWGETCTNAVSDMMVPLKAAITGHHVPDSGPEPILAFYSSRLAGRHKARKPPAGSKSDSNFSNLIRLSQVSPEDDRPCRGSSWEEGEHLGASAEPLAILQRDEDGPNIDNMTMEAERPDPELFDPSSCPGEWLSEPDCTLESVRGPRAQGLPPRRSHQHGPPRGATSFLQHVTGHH

[14] = molecular target: Tyrosine-protein kinase Srms (Homo sapiens, UniProt Q9H3Y6); format: functional;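 note: SRMS measured as one member of a kinome-wide kinase profiling panel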
Chain of Tyrosine-protein kinase Srms (Q9H3Y6 whole entry): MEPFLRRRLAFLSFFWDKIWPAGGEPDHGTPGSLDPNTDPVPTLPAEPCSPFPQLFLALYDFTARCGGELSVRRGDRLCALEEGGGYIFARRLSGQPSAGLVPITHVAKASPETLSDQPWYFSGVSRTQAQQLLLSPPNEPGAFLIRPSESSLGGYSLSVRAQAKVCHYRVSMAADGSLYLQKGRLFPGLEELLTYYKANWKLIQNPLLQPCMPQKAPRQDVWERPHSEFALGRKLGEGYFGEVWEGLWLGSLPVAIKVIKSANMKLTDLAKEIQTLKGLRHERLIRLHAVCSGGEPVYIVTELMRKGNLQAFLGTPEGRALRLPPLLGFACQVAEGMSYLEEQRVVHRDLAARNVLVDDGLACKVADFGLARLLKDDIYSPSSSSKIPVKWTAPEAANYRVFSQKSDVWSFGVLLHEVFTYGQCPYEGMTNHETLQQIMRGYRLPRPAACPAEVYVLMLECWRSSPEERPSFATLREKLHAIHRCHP

[15] = molecular target: Serine/threonine-protein kinase MRCK alpha (Homo sapiens, UniProt Q5VT25); format: functional
[16] = molecular target: Casein kinase I isoform gamma-1 (Homo sapiens, UniProt Q9HCP0); format: functional;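 note: measured as the CSNK1G1 member of a kinome profiling panel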
[17] = molecular target: Calcium/calmodulin-dependent protein kinase type II subunit gamma (Homo sapiens, UniProt Q13555); format: functional
[18] = molecular target: Mitogen-activated protein kinase kinase kinase 10 (Homo sapiens, UniProt Q02779); assay: Navigating the Kinome. Panel member name: MAP3K10; format: functional
Chain of Mitogen-activated protein kinase kinase kinase 10 (Q02779 whole entry): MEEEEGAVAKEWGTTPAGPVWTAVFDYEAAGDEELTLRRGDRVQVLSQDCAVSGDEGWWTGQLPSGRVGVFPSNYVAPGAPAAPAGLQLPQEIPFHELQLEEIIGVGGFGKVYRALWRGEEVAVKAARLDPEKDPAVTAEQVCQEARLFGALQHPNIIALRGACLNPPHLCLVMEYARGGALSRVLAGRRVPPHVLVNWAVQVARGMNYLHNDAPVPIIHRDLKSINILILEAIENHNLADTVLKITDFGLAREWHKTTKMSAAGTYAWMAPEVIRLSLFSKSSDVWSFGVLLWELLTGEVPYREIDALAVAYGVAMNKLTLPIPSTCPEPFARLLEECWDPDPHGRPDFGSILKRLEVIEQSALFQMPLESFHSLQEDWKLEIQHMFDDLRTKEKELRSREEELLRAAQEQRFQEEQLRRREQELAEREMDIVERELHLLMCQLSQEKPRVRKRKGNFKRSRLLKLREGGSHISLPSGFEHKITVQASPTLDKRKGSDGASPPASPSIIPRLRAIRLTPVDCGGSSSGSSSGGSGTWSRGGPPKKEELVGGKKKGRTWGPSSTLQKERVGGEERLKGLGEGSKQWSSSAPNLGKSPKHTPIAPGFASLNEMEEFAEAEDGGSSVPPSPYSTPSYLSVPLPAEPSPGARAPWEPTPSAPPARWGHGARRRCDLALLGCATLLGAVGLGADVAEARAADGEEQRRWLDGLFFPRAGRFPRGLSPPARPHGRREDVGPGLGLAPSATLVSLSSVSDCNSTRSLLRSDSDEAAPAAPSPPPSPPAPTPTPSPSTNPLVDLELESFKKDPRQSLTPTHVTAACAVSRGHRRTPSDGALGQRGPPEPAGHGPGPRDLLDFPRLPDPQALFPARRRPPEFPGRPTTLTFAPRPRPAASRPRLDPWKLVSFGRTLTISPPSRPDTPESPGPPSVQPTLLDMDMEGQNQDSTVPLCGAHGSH

[19] = molecular target: Tyrosine-protein kinase Lyn (Homo sapiens, UniProt P07948); format: functional;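 note: lyn as one member of a kinase panel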
Chain of Tyrosine-protein kinase Lyn (P07948 whole entry): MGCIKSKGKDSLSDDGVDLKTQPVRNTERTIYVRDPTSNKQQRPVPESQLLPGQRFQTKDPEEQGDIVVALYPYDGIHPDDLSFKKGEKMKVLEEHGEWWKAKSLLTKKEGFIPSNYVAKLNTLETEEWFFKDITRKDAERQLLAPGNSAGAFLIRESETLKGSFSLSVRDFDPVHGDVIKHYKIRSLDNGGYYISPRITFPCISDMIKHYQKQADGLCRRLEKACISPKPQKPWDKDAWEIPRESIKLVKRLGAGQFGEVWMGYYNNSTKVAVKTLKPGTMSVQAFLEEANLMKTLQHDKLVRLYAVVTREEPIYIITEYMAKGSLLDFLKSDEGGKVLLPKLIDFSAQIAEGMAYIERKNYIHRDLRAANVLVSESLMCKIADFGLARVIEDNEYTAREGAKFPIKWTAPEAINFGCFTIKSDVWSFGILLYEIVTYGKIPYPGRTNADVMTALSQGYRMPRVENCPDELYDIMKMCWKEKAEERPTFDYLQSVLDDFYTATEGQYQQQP

[20] = molecular target: SRSF protein kinase 1 (Homo sapiens, UniProt Q96SB4); format: functional;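 note: measured as one member of a kinome-wide kinase profiling panel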
[21] = molecular target: Tyrosine-protein kinase Blk (Homo sapiens, UniProt P51451); format: functional;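 note: obtained as one member of a kinome-wide kinase assay panel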
Chain of Tyrosine-protein kinase Blk (P51451 whole entry): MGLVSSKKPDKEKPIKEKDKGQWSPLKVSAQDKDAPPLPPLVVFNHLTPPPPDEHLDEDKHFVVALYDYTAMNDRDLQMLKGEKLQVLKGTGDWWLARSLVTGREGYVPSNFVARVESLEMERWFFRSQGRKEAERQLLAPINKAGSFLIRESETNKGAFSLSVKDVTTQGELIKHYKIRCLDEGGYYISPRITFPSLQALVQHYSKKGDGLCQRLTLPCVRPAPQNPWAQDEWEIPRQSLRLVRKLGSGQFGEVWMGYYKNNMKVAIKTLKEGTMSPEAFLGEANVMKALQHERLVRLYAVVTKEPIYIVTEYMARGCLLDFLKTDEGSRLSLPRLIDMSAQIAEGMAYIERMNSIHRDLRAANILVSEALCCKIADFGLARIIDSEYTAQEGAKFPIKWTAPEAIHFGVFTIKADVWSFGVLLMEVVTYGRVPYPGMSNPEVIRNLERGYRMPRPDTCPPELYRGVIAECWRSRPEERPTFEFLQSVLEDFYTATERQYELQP

[22] = molecular target: MAP/microtubule affinity-regulating kinase 4 (Homo sapiens, UniProt Q96L34); assay: Navigating the Kinome. Panel member name: MARK4; format: functional
[23] = molecular target: Tyrosine-protein kinase BTK (Homo sapiens, UniProt Q06187); format: functional

SMILES: O=C1/C(=C\c2cccc(O)c2O)SC(=S)N1Cc1ccccc1
- IC50 [1]: > 100 µM (inactive)
- IC50 [2]: 47.2 µM (active)

SMILES: COc1cccc2c1NC(C(=O)O)C1CC=CC21 (stereo not drawn)
- EC50 [3]: 19.5 µM (inconclusive)
- IC50 [4]: 27.7 µM (inactive)
- IC50 [5]: > 10 µM (not active)
- IC50 [6]: 88.9 µM (active)

SMILES: COc1c(-c2nc3ccccc3[nH]2)c(O)cc2oc(C)cc(=O)c12
- Ki [7]: 0.398 µM (active)
- Ki [8]: 1.58 µM (active)
- Ki [9]: > 5.01 µM (inactive)
- Ki [10]: > 6.31 µM (inactive)

SMILES: CCc1ccc(S(=O)(=O)/N=C2\C=C(Nc3ccc(O)cc3)C(=O)c3ccccc32)cc1
- IC50 [11]: 1.28 µM (active)

SMILES: Cc1cc([N+](=O)[O-])cc(/C=N\NC(=O)C2COc3ccccc3O2)c1O (stereo not drawn)
- IC50 [12]: > 94.2 µM (inactive)

SMILES: Cc1ccc(F)c(NC(=O)Nc2ccc(-c3cccc4[nH]nc(N)c34)cc2)c1 [LINIFANIB]
- Ki [13]: 0.0398 µM (active)
- Ki [14]: 1.58 µM (active)
- Ki [15]: > 10 µM (inactive)
- Ki [16]: 5.01 µM (active)
- Ki [17]: 3.98 µM (active)
- Ki [18]: > 3.16 µM (inactive)
- Ki [19]: 0.251 µM (active)
- Ki [20]: 7.94 µM (active)
- Ki [21]: 0.316 µM (active)
- Ki [22]: > 5.01 µM (inactive)
- Ki [23]: > 6.31 µM (inactive)
